Measured values reported in US10213445B2, “Compositions and methods of diazeniumdiolate-based prodrugs for treating cancer” (ARIZONA BOARD OF REGENTS ON BEHALF OF THE UNIVERSITY OF …, priority 2014, dated 2019).
pIC50: −log10 of the molar value.

What was measured:
[1] = Stability in phosphate buffer pH 7.4; type: physicochemical
Protocol: The newly synthesized HNO-releasing aspirin (IPA/NO-aspirin, 4) and NO-releasing aspirin (DEA/NO-aspirin, 8) were evaluated for the kinetic profile of NO and HNO release in buffer and cells.

MDA-MB-231 xenografts = experiment: MDA-MB-231-GFP xenograft growth and brain metastasis in nude mice; type: in vivo; conditions: daily injection of equimolar doses for five weeks; for size of the primary tumor (GFP fluorescence intensity, tumor mass): vs control
Protocol: The cells were allowed to grow for 14 d, and the animals (40) were randomly divided into four groups (control, aspirin, IPA/NO-aspirin or DEA/NO-aspirin). Treated groups were injected daily with equimolar doses of DEA/NO-aspirin or IPA/NO-aspirin (16 mg kg^−1) or aspirin (9 mg kg^−1)) or with DMSO for the next five weeks.
For examples utilizing mouse tumor model methods, the following procedure was instituted. Analysis of tumor growth was carried out using protocols approved by the Committee on the Ethics of Animal Experiments of the National Cancer Institute (RBB-144) and adhered with the recommendations in the United States National Research Council's “Guide for the Care and Use of Laboratory Animals,” the United States Public Health Service's “Guide for the Care and Use of Laboratory Animals” and the “Policy on Humane Care and Use of Laboratory Animals”. The vivarium was maintained at 23° C. on a 12 h light/12 h dark cycle with ad libitum access to food and water. Nude mice (n=40) under general anesthesia were implanted with 7.5×10^5 MDA-MB-231 cells transfected with GFP by injection underneath the fourth left mammary gland. Prior to implantation, pedal withdrawal and eyelid reflexes were examined to ensure that mice were under stage III of anesthesia. At 14 days post-inoculation, the mice were randomly divided into four groups and treated by daily injection of equimolar doses (10 μL of 100 mM stock) of aspirin (9.00 mg kg^−1), IPA/NO-aspirin (15.8 mg kg^−1) or DEA/NO-aspirin (16.3 mg kg^−1) or with vehicle (DMSO). After five weeks, the tumor size was measured using in vivo fluorescent imaging for quantification of the GFP tag. In brief, mice were under general anesthesia throughout the whole body imaging process, and GFP signals were captured and quantified in an Xenogen IVIS 100 Imaging System according to the manufacturer's protocol. To assess metastasis in the brain, the animals were subsequently sacrificed following the approved method and guidelines.

GAPDH in MCF-10A cells = target: T1, GAPDH in MCF-10A cells (Homo sapiens, UniProt P04406); experiment: GAPDH activity in cells; type: cell-based; conditions: 0-100 μM, 1 h, 37° C.
T1 construct: host or cells: MDA-MB-231; MCF-10A
Protocol: (§1) The cells were treated with varied concentrations (0, 25, 50, 75, 100 μM) of IPA/NO-aspirin (blue) or DEA/NO-aspirin (green) for 1 h at 37° C. GAPDH activity was assessed by measuring fluorescence intensity at 570 nm. Data are plotted as mean±SD (n=3).
(§2) GAPDH is a critical glycolytic enzyme that can play an important role in cancer therapy as solid tumors often utilize glycolytic pathways even during normoxia to meet their energy requirements. Thus, inhibition of GAPDH can diminish ATP availability for tumor cells. GAPDH is also involved in initiation of apoptosis and in DNA repair.

[2] = target: T2, GAPDH in MDA-MB-231 cells (Homo sapiens, UniProt P04406); experiment: GAPDH activity in cells; type: cell-based; conditions: MDA-MB-231, 0-100 μM, 1 h, 37° C.
T2 construct: host or cells: MDA-MB-231; MCF-10A
Protocol: as §1, §2

[3] = Prodrug decomposition in cells; type: in vitro ADME; conditions: A549 cells
caspase-3 = experiment: Caspase-3 activity in breast cancer cells; type: cell-based, human; conditions: MDA-MB-231, MDA-MB-468, MCF-7; 0-100 μM, 24 h, 37° C.
Protocol: The cells were treated with various concentrations (0, 25, 50, 100 μM) of IPA/NO-aspirin (blue) or DEA/NO-aspirin (green) for 24 h at 37° C. Caspase-3 activity was determined by recording the fluorescence ( ? 485 nm, ? 535 nm) of the product formed by cleavage of the substrate, N-Ac-DEVD-N′-MC-R11. Data are plotted as mean±SD (n=3).
Caspases are cysteine-aspartate proteases that can trigger apoptosis through a signaling cascade. Caspase-3 is an effector protease that has active cysteine residues that are susceptible to S-nitrosation. The impact of this modification has been variously reported to lead to reversible inhibition and to activation.

[4] = system: cleaved PARP in MDA-MB-231 cells; experiment: PARP cleavage by Western blot; type: cell-based, human; conditions: 1-44 h, preliminary analysis
Protocol: The cells were treated with 50 μM IPA/NO-aspirin (blue) or 75 μM DEA/NO-aspirin (green), respectively at 37° C., and protein was collected at various time points (1-44 h). Lanes 1-6 (20 μg of protein): IPA/NO-aspirin at 1, 3, 6, 10, 20, 44 h; […]: DEA/NO-aspirin at 1, 6, 10, 20, 30, 44 h; Lane 15: control. Cleaved PARP levels at different time points were quantified by Western blot with respect to control, which was treated as 100%. HPRT was used as the loading control.
Since a number of chemotherapies and radiation therapy are based on inducing DNA damage in cancer cells, inhibition of PARP by HNO donors may increase the efficacy of these treatments. Furthermore, IPA/NO-aspirin is able to not only induce DNA damage but also to impede DNA repair.

HUVECs [5] = experiment: Tube formation (angiogenesis) in Matrigel; type: cell-based, human; conditions: 12 hours, 1 and 10 μM, vs control
Protocol: Cells in Matrigel were treated with A) DMSO, B) 1 μM or C) 10 μM IPA/NO-aspirin, D) 1 μM or E) 10 μM DEA/NO-aspirin at 37° C., and the extent of tube formation was measured after 12 h using a microscope.
The impact of the NONO-aspirin prodrugs on tube formation in HUVECs after 12 hours treatment was examined as a measure of angiogenesis.

HUVECs [6] = experiment: Cytotoxicity toward HUVECs; type: cell-based, human; conditions: previously determined
[7] = system: E-cadherin in MDA-MB-231 cells; experiment: E-cadherin expression (RT-PCR, Western blot); type: cell-based, human; conditions: 100 μM, 3, 6 or 12 h; for E-cadherin mRNA expression: RT-PCR; for E-cadherin protein level: Western blot
Protocol: The cells were treated with vehicle (black) or 100 μM IPA/NO-aspirin (blue) or DEA/NO-aspirin (green) for 3, 6 or 12 h at 37° C. Relative mRNA expression was measured using RT-PCR techniques. E-cadherin mRNA were quantified with respect to control (1).
The cells were treated with vehicle (black) or 100 μM IPA/NO-aspirin (blue) or DEA/NO-aspirin (green) for 3, 6 or 12 h at 37° C. Protein expression was measured using Western blot techniques. E-cadherin protein levels were quantified with respect to control (100%).
Epithelial cadherin (E-cadherin) is calcium-dependent, membrane-associated cellular adhesion glycoprotein. Loss of E-cadherin-mediated cellular adhesion is a prerequisite for invasion and metastasis of tumor cells. NO is an endogenous mediator of endothelial cell migration. […] However, the effect of HNO on metastasis has not been studied. […] This can result in a reversal of tumor cells from an invasive, mesenchymal, to a benign, epithelial phenotype.

lung carcinoma cells = conditions: selective compared to normal endothelial cells, read-out: IC50 (proliferation); cited from earlier work

T2 sequence (P04406 whole entry): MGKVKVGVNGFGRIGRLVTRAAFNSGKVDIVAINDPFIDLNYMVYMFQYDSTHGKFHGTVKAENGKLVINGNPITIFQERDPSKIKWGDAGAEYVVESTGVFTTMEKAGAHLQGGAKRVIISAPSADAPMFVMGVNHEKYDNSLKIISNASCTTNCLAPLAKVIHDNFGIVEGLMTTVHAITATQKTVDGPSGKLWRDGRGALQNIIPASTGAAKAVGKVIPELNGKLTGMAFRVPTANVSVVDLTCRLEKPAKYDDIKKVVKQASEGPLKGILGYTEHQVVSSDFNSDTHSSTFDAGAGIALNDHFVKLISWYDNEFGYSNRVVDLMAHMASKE
T1 sequence (P04406 whole entry): as above

## CCN(CC)[N+]([O-])=NOCOC(=O)c1ccccc1OC(C)=O [DEA/NO-aspirin, O2-(Acetylsalicyloyloxymethyl)-1-(N,N-Diethylamino)-diazen-1-ium-1,2-diolate]
[1]
  stability in buffer: relatively stable in phosphate buffer pH 7.4 for several hours
MDA-MB-231 xenografts
  metastasis to the brain (GFP fluorescence): decreased metastasis compared to aspirin and untreated controls, the results were not statistically significant
  size of the primary tumor (GFP fluorescence intensity, tumor mass): substantial, although not statistically significant, reduction
GAPDH in MCF-10A cells
  GAPDH activity: not inhibitory in either cell line
[2]
  GAPDH activity: not inhibitory in either cell line
[3]
  lifetime in cells relative to IPA/NO-aspirin: about three times longer-lived
caspase-3
  caspase-3 activity: more modest in MDA-MB-231 and MCF7 cells
[4]; 75 μM
  level of cleaved PARP: relatively short-lived
HUVECs [5]
  angiogenesis (tube formation): reduced angiogenesis
HUVECs [6]
  cytotoxicity toward HUVECs: neither IPA/NO-aspirin or DEA/NO-aspirin are appreciably cytotoxic
[7]
  E-cadherin mRNA expression: did increase E-cadherin expression in a time-dependent manner
  E-cadherin protein level: did increase E-cadherin expression in a time-dependent manner
Lung carcinoma cells
  pIC50: 4.00

## CC(=O)Oc1ccccc1C(=O)OCON=[N+]([O-])NC(C)C [IPA/NO-aspirin, O2-(Acetylsalicyloyloxymethyl)-1-(N-isopropylamino)-diazen-1-ium-1,2-diolate]
[1]
  stability in buffer: relatively stable in phosphate buffer pH 7.4 for several hours
MDA-MB-231 xenografts
  metastasis to the brain (GFP fluorescence): decreased metastasis compared to aspirin and untreated controls, the results were not statistically significant
  size of the primary tumor (GFP fluorescence intensity, tumor mass): significant decrease
GAPDH in MCF-10A cells
  GAPDH activity: did not affect GAPDH activity
[2]
  GAPDH activity: inhibited GAPDH activity in a concentration (FIG. 9A) and time-dependent-manner
[3]
  time to complete decomposition in cells: approximately 3 hours
caspase-3
  caspase-3 activity: activated caspase-3 in all three breast cancer lines
[4]; 50 μM
  level of cleaved PARP: increases the level of cleaved PARP in a longer-term fashion
HUVECs [5]
  angiogenesis (tube formation): reduced angiogenesis
HUVECs [6]
  cytotoxicity toward HUVECs: neither IPA/NO-aspirin or DEA/NO-aspirin are appreciably cytotoxic
[7]
  E-cadherin mRNA expression: does not show any significant change
  E-cadherin protein level: does not show any significant change
Lung carcinoma cells
  pIC50: 4.00
